Laboratory results reported in patent US20080194024A1, “Culture of Non-Embryonic Cells at High Cell Density” (priority 2005, published 2008).
Like-named read-outs stand apart in the source and are kept apart here.

Tests used:
[1] = tested on: GSK-3; conditions: study cited did not specify which isoform(s) was tested; value marked a: L. Meijer et al., unpublished; read-out: IC50 GSK-α and GSK-3β, isoform not specified; cited from earlier work
[2] = tested on: CDK1-cyclin B complex; conditions: cited from earlier work; for IC50: values marked a: L. Meijer et al., unpublished
[3] = target: GSK-3β (Homo sapiens, UniProt P49841)
[4] = tested on: GSK-3 (α/β) mixture of isoforms; conditions: cited from earlier work
[5] = tested on: mouse mesodermal stem cell line differentiated into a myoblastic lineage; conditions: Chen, S., et al. (2003); cited from earlier work
[6] = target: GSK-3α (Homo sapiens, UniProt P49840); conditions: cited from earlier work
[7] = tested on: Murine MAPCs; test: MAPC culture with BIO, morphology (clustering); assay type: cell-based, mouse; conditions: 0.1-2 microM BIO; from 4 days after treatment; at both cell densities
[8] = tested on: Murine MAPCs; test: Quantitative RT-PCR of MAPCs treated with BIO; assay type: cell-based, mouse
[9] = tested on: Murine MAPCs; test: Immunohistochemistry of MAPCs treated with BIO; assay type: cell-based, mouse
[10] = tested on: human embryonic stem (ES) cells; conditions: substitutes for feeder cultures or exogenous cytokines; expression of Oct-3a, Rex-1 and Nanog; cited from earlier work
[11] = tested on: mouse embryonic stem (ES) cells; conditions: substitutes for feeder cultures or exogenous cytokines; expression of Oct-3a, Rex-1 and Nanog; cited from earlier work
[12] = tested on: CDK2 and CDK5; conditions: printed in the CDK1-cyclin B column with note (CDK2 and CDK5); cited from earlier work
[13] = mixture of isoforms tested, values marked a: L. Meijer et al., unpublished
[14] = MAPCs maintained at low density
[15] = high concentration of BIO, MAPCs maintained at low density

Sequence of GSK-3β (P49841 whole entry, species assumed, canonical isoform): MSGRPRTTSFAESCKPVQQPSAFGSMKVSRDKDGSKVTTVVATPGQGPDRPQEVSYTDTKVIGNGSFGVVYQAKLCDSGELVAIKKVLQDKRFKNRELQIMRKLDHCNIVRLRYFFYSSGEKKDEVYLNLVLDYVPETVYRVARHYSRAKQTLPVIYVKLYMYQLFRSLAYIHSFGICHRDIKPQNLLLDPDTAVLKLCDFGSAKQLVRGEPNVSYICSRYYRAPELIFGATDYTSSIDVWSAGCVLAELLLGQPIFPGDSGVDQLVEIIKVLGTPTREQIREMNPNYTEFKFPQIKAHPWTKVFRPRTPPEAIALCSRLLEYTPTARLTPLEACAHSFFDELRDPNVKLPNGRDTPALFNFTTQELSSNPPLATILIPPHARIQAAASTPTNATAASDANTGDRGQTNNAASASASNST
Sequence of GSK-3α (P49840 whole entry, species assumed): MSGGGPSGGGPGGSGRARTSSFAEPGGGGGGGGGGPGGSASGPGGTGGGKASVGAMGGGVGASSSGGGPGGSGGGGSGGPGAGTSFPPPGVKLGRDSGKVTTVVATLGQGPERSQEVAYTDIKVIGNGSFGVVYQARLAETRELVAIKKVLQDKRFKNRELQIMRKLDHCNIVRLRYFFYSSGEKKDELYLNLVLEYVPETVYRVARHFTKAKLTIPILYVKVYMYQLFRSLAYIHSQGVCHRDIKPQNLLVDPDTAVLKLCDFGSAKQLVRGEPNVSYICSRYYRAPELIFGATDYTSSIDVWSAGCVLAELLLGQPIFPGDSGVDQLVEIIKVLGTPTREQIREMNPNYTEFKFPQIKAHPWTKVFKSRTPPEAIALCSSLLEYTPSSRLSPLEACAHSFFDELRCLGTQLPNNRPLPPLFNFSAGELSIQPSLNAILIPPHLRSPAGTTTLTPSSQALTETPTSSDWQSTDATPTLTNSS

OCCCNc1cc(-c2ccnc(Nc3cccc(Cl)c3)n2)ccn1 [CGP60474]
IC50 [1]: 10 nM

[Be+2] [Beryllium]
IC50 [1]: 6000 nM | Effect on CDK1-cyclin B complex [2]: Inhibits CDK1

O=C1Cc2c([nH]c3ccc(Br)cc23)-c2ncccc2N1 [Azakenpaullone]
IC50 [2]: 2000 nM

CN(C)CCCn1cc(C2=C(c3c[nH]c4ccccc34)C(=O)NC2=O)c2ccccc21 [GF109203x, bisindolyl-maleimide I]
IC50 ([3]; β isoform tested; from Meijer, L. et al. (2004); read-out: IC50 GSK-3 (β); cited from earlier work): 190 nM | IC50 [2]: 2300 nM

[Zn] [Zinc]
IC50 [1]: 15000 nM | Effect on CDK1-cyclin B complex [2]: No effect

CN1CCN(c2cnc(NCCNc3ccc([N+](=O)[O-])c(N)n3)nc2-c2ccc(Cl)cc2Cl)C(=O)C1 [CT20026]
IC50 [4, 13]: 4 nM

c1nc2nc(Nc3ccc(N4CCOCC4)cc3)nc(NC3CCCCC3)c2[nH]1 [reversine]
effect on committed myoblast [5]: de-differentiate

O=C1NC(=O)C(c2ccccc2[N+](=O)[O-])=C1Nc1ccc(O)c(Cl)c1 [SB415286]
IC50 [2]: 900 nM

Cn1sc(=O)n(Cc2ccccc2)c1=O [TDZD8]
IC50 [4, 13]: 7000 nM

CC(=O)ON=C1C(=C2C(=O)Nc3cc(Br)ccc32)Nc2ccccc21 [6-Bromoindirubin-3′-acetoxime]
IC50 [1]: 10 nM | IC50 [2]: 63000 nM

Cn1cc(C2=C(c3cn(CCCSC(=N)N)c4ccccc34)C(=O)NC2=O)c2ccccc21 [Ro318220, bisindolyl-maleimide IX]
IC50 ([3]; read-out: IC50 GSK-3 (β); β isoform tested; from Meijer, L. et al. (2004); cited from earlier work): 3 to 38 nM

CHIR98014
IC50 [4]: 0.58 nM | IC50 [6]: 0.65 nM | IC50 [2]: 3700 nM

CN1CC[C@H](c2c(O)cc(O)c3c(=O)cc(-c4ccccc4Cl)oc23)[C@H](O)C1 [Flavopiridol]
IC50 [1]: 450 nM

COc1ccc2c(c1)/C(=C/c1cnc[nH]1)C(=O)N2 [SU9516]
IC50 [1]: 330 nM

O=C1Nc2cc(Br)ccc2/C1=C1/Nc2ccccc2/C1=N\O [BIO, 6-bromoindirubin-3′-oxime]
clustering of MAPC [7]: dose-dependent clustering | Oct-4 mRNA levels [8, 14]: decreased in a BIO dose-dependent manner | Rex-1 mRNA levels [8, 14]: decreased in a BIO dose-dependent manner | AFP levels [8, 15]: higher levels of AFP | Sox1 levels [8, 15]: higher levels | endothelial specific genes (for example, vWF) levels ([8]; low concentration of BIO, MAPCs maintained at low density): higher levels of endothelial specific genes | UTF1 or E-Ras expression ([8]; mRNA, Q-RT-PCR): did not affect | Oct-4, β-catenin and E-cadherin protein expression in large dense MAPC clusters ([9]; high density (ESC densities), 1 or 2 microM BIO): very high levels | Oct-4, β-catenin and E-cadherin protein expression in clusters ([9]; low-density MAPCs, 2 microM BIO): highly expressed | maintenance of undifferentiated pluripotent state, human ES cells [10]: maintaining the ES cultures in an undifferentiated pluripotent state | maintenance of undifferentiated pluripotent state, mouse ES cells [11]: maintaining the ES cultures in an undifferentiated pluripotent state

Aloisine B
IC50 [1]: 750 nM | IC50 [2]: 850 nM

Nc1cccc(-c2cc3c(Oc4cccc(O)c4)ncnc3[nH]2)c1 [TWS119]
IC50 ([3]; read-out: IC50 GSK-3 (β); cited from earlier work): 30 nM

Cn1cc(C2=C(c3ccc(Cl)cc3Cl)C(=O)NC2=O)c2ccccc21 [SB216763]
IC50 [2]: 550 nM

COc1ccc(CNC(=O)Nc2ncc([N+](=O)[O-])s2)cc1 [ARA014418]
IC50 [12]: > 100000 nM
